# Entries after “also recorded” stand apart in the source; their conditions may differ.
# How the values were obtained:
# Format in all cases: in vivo, rat
# [1] = test system: IL-1beta; experiment: RT-qPCR of bladder IL-1beta mRNA in CYP cystitis model; settings: CYP (75 mg/kg i.p.) female Sprague Dawley rats; oral 8-AG 5 mg/kg/day starting one week prior to CYP
# Experimental: Animals: Female Sprague Dawley rats were employed in this example (Charles River; Wilmington, Mass.). Three groups of animals were included. Group 1 received an i.p. injection of saline and was used as a control; groups 2 and 3 received an i.p. injection of cyclophosphamide (CYP, SIGMA-ALDRICH®, St Louis, Mo., day 0, 3, 6, sacrifice day 8, 75 mg/kg, i.p.) with group 3 treated with oral 8-AG (5 mg/kg/day; starting one week prior to CYP). CYP induced bladder inflammation and is a well-established pre-clinical model for BPS/IC.
# RT-qPCR: Total RNA was isolated from bladders using TRIZOL® Reagent (THERMO FISHER SCIENTIFIC®; Waltham, Mass.) according to the manufacturer's instructions. The cDNA was synthesized using ISCRIPT™ cDNA synthesis kit (BIO-RAD®). qPCR analysis was performed using Power SYBR™ Green PCR Master Mix (THERMO FISHER SCIENTIFIC®) in the APPLIED BIOSYSTEMS® QUANTSTUDIO™ 3 Real-Time PCR System (THERMO FISHER SCIENTIFIC®). The primers used were as follows: for IL-1beta, 5′-[…]-3′ (forward; SEQ ID NO: 1) and 5′-[…]-3′ (reverse; SEQ ID NO: 2); for MCP-1, 5′-[…]-3′ (forward; SEQ ID NO: 3) and 5′-[…]-3′ (reverse; SEQ ID NO: 4); for β-actin, 5′-ACTCTTCCAGCCTTCCTTC-3′ (forward; SEQ ID NO: 5) and 5′-[…]-3′ (reverse; SEQ ID NO: 6). The threshold cycle (Ct) for target was subtracted from Ct for β-actin to give ΔCt. Results are expressed as 2AC.
# [2] = test system: catalase; experiment: Catalase activity in detrusor smooth muscle; settings: aged rats; oral 8-AG 5 mg/kg/day, 6 weeks
# [3] = test system: bladder wall collagen fibers; experiment: Planar biaxial mechanical testing coupled with multiphoton microscopy of bladder wall; settings: aged rats
# Experimental: Protocol 3: Planar biaxial mechanical testing coupled with multiphoton microscopy was performed on bladder wall specimens to assess bladder mechanical function while simultaneously observing changes in the collagen microstructure. Briefly, the unloaded intact bladder diameter (do) and meridional length (hv) were measured and used to calculate the unloaded bladder volume (V0) from the ellipsoid volume, V0=πd0^2h0/6. The intact bladders were then cut open longitudinally and trimmed into 6±1 mm×6±1 mm square specimens for mechanical testing with sides aligned in the in situ longitudinal and circumferential directions. Samples were then positioned in the custom-designed biaxial testing system and mechanically tested using fiducial markers on the sample to calculate stretch, defined as the ratio of distance between markers in sample when loaded and unloaded. A multiphoton microscope (OLYMPUS® FV1000 MPE) equipped with a Coherent Cheleon TiSapphire pulsed Laser was used to image the undulated (wavy) collagen fibers in the mounted samples without staining or fixation during loading (i.e., stretch) as per previously published methods. Stacks of 2D planar images were generated by imaging sequentially across the wall thickness. To avoid tissue damage while obtaining a large range of stretch, loading was stopped at the stretch where collagen fibers were visibly straightened (heretofore termed recruited). This was defined as the maximum stretch. Fiber tortuosity was measured by tracing collagen fibers across the 2D slices (Filament function in Imaris, Bitplane, Switzerland). Fiber arc length (s) and cord length (L) were determined for each fiber tracing and used to calculate the tortuosity. The tortuosity of an undulated or wavy fiber is, therefore, greater than one and approaches one as the fiber becomes fully straightened.
# Bi-axial Stretch Combined with Multi-Photon (MPM) Imaging: Planar biaxial mechanical testing coupled with multiphoton microscopy was performed on bladder wall specimens to assess bladder mechanical function while simultaneously observing changes in the collagen microstructure. Briefly, the unloaded intact bladder diameter (do) and meridional length (hv) were measured and used to calculate the unloaded bladder volume (V0) from the ellipsoid volume, V0=πd0^2h0/6. The intact bladders were then cut open longitudinally and trimmed into 6±1 mm×6±1 mm square specimens for mechanical testing with sides aligned in the situ longitudinal and circumferential directions. […] Fiber tortuosity was measured by tracing collagen fibers across the 2D slices (Filament function in Imaris, Bitplane, Switzerland). Fiber arc length (s) and cord length (L) were determined for each fiber tracing and used to calculate the tortuosity. […]
compound,measurement,setting,value
"Nc1nc2[nH]c(N)nc2c(=O)[nH]1 [8-AG, 8-Aminoguanine]",IL-1beta mRNA expression in bladder,[1],suppressed; also recorded: near the detection limit; also recorded: nearly abolished
same,catalase activity in detrusor smooth muscle,[2],levels similar to the younger state; also recorded: restored these biomarkers to that of a younger state
same,bladder compliance (stress-stretch curve),"[3]; oral 8-AG 5 mg/kg/day, 6 weeks","more extensible (or compliant) bladder; also recorded: more extensible, compliant bladder"
same,collagen fiber tortuosity in the detrusor layer,"[3]; oral 8-AG 5 mg/kg/day, 6 weeks",increased; also recorded: restored fiber tortuosity to that of younger rats
same,collagen fiber tortuosity in the lamina propria,"[3]; oral 8-AG 5 mg/kg/day, 6 weeks",increased; also recorded: Normalizing; also recorded: restored fiber tortuosity to that of younger rats
same,critical stretch at which the steep increase in bladder stiffness occurs,[3]; oral 8-AG for 1 week and 4 weeks,recovered to levels found in young rats

# From patent publication US20220054494A1, “METHODS FOR TREATING BLADDER AND URETHRA DYSFUNCTION AND DISEASE” (University of Pittsburgh - Of the Commonwealth System of …, priority 2019, published 2022)
